We go through 23 compounds from patent US8778935B2 (Centro Nacional de Investigaciones Oncologicas (CNIO), priority 2009, dated 2014).

One assay deals with phospho-Ser-473-Akt. Kind of assay: PI3K signalling: AKT phosphorylation inhibition, Western blot analysis. Type of assay: cell-based. Conditions: Homo sapiens, cell assay, read-out: IC50 of AKT Phosphorylation Inhibition (p-AKT cell). On the procedure: Cell culture: The cell lines were obtained from the American Type Culture Collection (ATCC). U2OS (human osteosarcoma) was cultured in Dulbecco's modified Eagle's medium (DMEM). PC3 (human prostate carcinoma), MCF7 (human breast cardinoma), HCT116 (human colon carcinoma), […], U251 (human glyoblastoma) were grown in RPMI. All media were supplemented with 10% fetal bovine serum (FBS) (Sigma) and antibiotics-antimycotics. Cell were maintained in a humidified incubator at 37° C. with 5% CO2 and passaged when confluent using trypsin/EDTA.
AKT phosphorylation Inhibition. Western Blot Analysis: Subconfluent cells were incubated under different conditions and washed twice with TBS prior to lysis. Lysis buffer was added containing 50 mM Tris HCl, 150 mM NaCl, 1% NP-40, 2 mM Na3VO4, 100 mM NaF, 20 mM Na4P2O7 and protease inhibitor cocktail (Roche Molecular Biochemicals). The proteins were resolved on 10% SDS-PAGE and transferred to nitrocellulose membrane (Schleicher & Schuell, Dassel, Germany). The membranes were incubated overnight at 4° C. with antibodies specific for Akt, phospho-Ser-473-Akt (Cell Signaling Technology) and α-tubulin (Sigma), they were washed and then incubated with IRDye800 conjugated anti-mouse and Alexa Fluor 680 goat anti-rabbit IgG secondary antibodies. The bands were visualized using an Odyssey infrared imaging system (Li-Cor Biosciences).
A general note: Immunoblotting shows a protein as a band on a membrane.

The target of a further assay is T1, PI3K (p110α/p85α) (Homo sapiens, UniProt P42336).
T1 construct: purchased Carna Biosciences 07CBS-0402A
Kind of assay: PI3K Activity Assay (ADP Hunter Plus). Type of assay: biochemical. On the procedure: The kinase activity was measured by using the commercial ADP Hunter™ Plus assay available from DiscoveRx (#33-016), which is a homogeneous assay to measure the accumulation of ADP, a universal product of kinase activity. […] Reaction was carried out for 1 hour at 25° C. Reagent A and B were sequentially added to the wells and plates were incubated for 30 min at 37° C. […] Values were normalized against the control activity included for each enzyme (i.e., 100% PI3 kinase activity, without compound). These values were plot against the inhibitor concentration and were fit to a sigmoid dose-response curve by using the Graphad software.

Setting [1] is: PI3Kα activity, quantitative results, read-out: PI3Kα IC50.
[2] abbreviates: quantitative results of Table 4, read-out: PI3Kα IC50.
[3] abbreviates: quantitative results, read-out: PI3Kα IC50.
[4] abbreviates: semi-quantitative results, read-out: PI3Kα IC50 (semi-quantitative class).

Read-outs that look alike come from different tables or passages of the source.

T1 sequence (P42336 whole entry): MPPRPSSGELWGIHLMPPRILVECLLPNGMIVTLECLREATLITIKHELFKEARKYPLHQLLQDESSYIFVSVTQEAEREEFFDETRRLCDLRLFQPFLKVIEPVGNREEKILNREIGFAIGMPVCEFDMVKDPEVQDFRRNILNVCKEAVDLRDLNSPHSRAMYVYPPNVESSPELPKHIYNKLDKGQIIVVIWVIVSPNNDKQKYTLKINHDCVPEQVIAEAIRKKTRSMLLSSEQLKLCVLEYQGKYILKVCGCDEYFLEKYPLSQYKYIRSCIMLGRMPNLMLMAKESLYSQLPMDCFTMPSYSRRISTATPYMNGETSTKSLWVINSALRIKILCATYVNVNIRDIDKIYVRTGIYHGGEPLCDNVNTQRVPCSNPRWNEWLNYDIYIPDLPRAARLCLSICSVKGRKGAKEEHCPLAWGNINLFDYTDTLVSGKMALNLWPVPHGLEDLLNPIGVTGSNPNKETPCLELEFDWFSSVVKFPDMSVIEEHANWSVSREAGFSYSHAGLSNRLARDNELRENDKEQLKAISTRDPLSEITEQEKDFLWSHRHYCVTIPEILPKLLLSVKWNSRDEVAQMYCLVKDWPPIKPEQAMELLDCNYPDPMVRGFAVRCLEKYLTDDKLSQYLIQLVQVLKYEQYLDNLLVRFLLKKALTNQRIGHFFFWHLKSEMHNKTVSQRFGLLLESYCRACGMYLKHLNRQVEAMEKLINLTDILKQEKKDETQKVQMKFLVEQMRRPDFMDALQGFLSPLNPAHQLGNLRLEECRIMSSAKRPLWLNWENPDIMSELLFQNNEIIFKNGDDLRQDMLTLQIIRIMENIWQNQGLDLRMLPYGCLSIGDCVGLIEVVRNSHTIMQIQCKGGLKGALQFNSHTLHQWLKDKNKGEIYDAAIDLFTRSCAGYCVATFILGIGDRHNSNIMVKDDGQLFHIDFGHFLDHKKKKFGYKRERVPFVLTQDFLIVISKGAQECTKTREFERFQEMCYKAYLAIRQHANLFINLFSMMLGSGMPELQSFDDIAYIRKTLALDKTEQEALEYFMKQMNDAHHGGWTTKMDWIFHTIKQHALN
T1 sequence (P27986 whole entry partner): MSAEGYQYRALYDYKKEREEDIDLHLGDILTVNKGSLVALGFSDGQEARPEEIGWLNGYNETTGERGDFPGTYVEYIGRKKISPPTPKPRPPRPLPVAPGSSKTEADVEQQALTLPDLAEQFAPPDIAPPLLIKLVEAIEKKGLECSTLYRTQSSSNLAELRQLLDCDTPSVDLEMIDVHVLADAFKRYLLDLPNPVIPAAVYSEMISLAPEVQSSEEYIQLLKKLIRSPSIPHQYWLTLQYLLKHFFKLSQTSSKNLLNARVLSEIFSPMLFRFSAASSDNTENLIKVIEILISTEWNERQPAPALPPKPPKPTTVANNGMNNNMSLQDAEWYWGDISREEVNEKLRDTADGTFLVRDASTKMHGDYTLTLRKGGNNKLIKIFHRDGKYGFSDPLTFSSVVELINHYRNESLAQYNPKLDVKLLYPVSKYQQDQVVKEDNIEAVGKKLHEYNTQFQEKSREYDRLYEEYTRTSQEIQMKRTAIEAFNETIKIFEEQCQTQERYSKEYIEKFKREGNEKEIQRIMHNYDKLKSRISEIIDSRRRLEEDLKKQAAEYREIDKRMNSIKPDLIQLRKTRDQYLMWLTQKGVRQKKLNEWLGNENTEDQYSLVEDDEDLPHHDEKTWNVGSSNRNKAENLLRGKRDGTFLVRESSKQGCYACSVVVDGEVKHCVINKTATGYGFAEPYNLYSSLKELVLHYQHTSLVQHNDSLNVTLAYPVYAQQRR

In general, IC50 refers to the concentration needed to halve the response being measured. As for `Nc1ncc(-c2cn3cc(C(=O)N[C@H]4CC[C@H](O)CC4)nc3c(N3CCOCC3)n2)cn1` [2-192], the IC50 amounted to 70 nM with phospho-Ser-473-Akt and 10 nM on PI3K (p110α/p85α) (setting [1]).
On to `NC(=O)c1cn2cc(-c3cccnc3)nc(N3CCCCC3)c2n1` [2-119], for which the IC50 in the assay with phospho-Ser-473-Akt was determined as 87 nM; on PI3K (p110α/p85α) (setting [2]), 93 nM.
As for `COCCNC(=O)c1cn2cc(-c3cccc4[nH]ncc34)nc(N3CCOCC3)c2n1` [2-186], the results for the IC50 in the assay with phospho-Ser-473-Akt and at PI3K (p110α/p85α) (setting [1]) were 281 nM and 66 nM, respectively.
`CCS(=O)(=O)N1CCN(Cc2cn3cc(-c4cnc(N)nc4)nc(N4CCOCC4)c3n2)CC1` [2-220]: the IC50 was 98 nM in the assay with phospho-Ser-473-Akt and 13 nM on PI3K (p110α/p85α) (setting [1]).
The corresponding values for `Cc1ncc(-c2cn3cc(CN4CCN(S(C)(=O)=O)CC4)nc3c(N3CCOCC3)n2)cn1` [2-196] are 134 nM and 21 nM.
On to `Oc1cccc(-c2cn3cc(C(F)(F)F)nc3c(N3CCOCC3)n2)c1` [2-13, 3-(2-(trifluoromethyl)-8-morpholinoimidazo[1,2-a]pyrazin-6-yl)phenol], for which the IC50 is 714 nM with phospho-Ser-473-Akt, 108 nM on PI3K (p110α/p85α) (setting [3]) and 100 to 1000 nM at PI3K (p110α/p85α) (setting [4]).
With `CCOC(=O)N1CCC(NC(=O)c2cn3cc(-c4cnc(N)nc4)nc(N4CCOCC4)c3n2)CC1` [2-188], the IC50 with phospho-Ser-473-Akt worked out at 60 nM; on PI3K (p110α/p85α) (setting [1]), 3 nM.
For `CS(=O)(=O)N1CCN(Cc2cn3cc(-c4cccc(O)c4)nc(N4CCOCC4)c3n2)CC1` [2-10, 1-(4-((6-(3-hydroxyphenyl)-8-morpholinoimidazo[1,2-a]pyrazin-2-yl)methyl)-piperazin-1-yl)sulfonylmethane], the IC50 with phospho-Ser-473-Akt came out at 48 nM.
Consider `COCCNC(=O)c1cn2cc(-c3cccnc3)nc(N3CCOCC3)c2n1` [2-154], for which the IC50 with phospho-Ser-473-Akt worked out at 1050 nM; at PI3K (p110α/p85α) (setting [2]), 166 nM.
With `CCOC(=O)c1cn2cc(-c3cccc(O)c3)nc(N3CCOCC3)c2n1` [2-01, ethyl 6-(3-hydroxyphenyl)-8-morpholinoimidazo[1,2-a]pyrazine-2-carboxylate], the 50% inhibitory concentration (IC50) with phospho-Ser-473-Akt is 132 nM; at PI3K (p110α/p85α) (setting [3]), 158 nM; at PI3K (p110α/p85α) (setting [4]), 100 to 1000 nM.
As to `Nc1ncc(-c2cn3cc(CN4CCOCC4)nc3c(N3CCOCC3)n2)cn1` [2-175], the IC50 in the assay with phospho-Ser-473-Akt amounted to 469 nM; at PI3K (p110α/p85α) (setting [1]), 83 nM.
In the case of `Nc1ncc(-c2cn3cc(C4CC4)nc3c(N3CCOCC3)n2)cn1` [2-171], the IC50 in the assay with phospho-Ser-473-Akt came out at 379 nM; at PI3K (p110α/p85α) (setting [1]), 50 nM.
The corresponding values for `C[C@@H]1CN(S(C)(=O)=O)C[C@H](C)N1Cc1cn2cc(-c3cnc(N)nc3)nc(N3CCOCC3)c2n1` [2-219] are 244 nM and 3 nM.
The corresponding values for `Nc1ncc(-c2cn3cc(CN4CCS(=O)(=O)CC4)nc3c(N3CCOCC3)n2)cn1` [2-222] are 95 nM and 82 nM.
For the compound `CS(=O)(=O)N1CCN(Cc2cn3cc(-c4cccc5[nH]ncc45)nc(N4CCOCC4)c3n2)CC1` [2-17, 6-(1H-indazol-4-yl)-2-((4-sulfonylmethylpiperazin-1-yl)methyl)-8-morpholino-imidazo[1,2-a]pyrazine], in the assay on phospho-Ser-473-Akt, the IC50 turned out to be 391 nM.
Consider `CCNC(=O)c1cn2cc(-c3cccc4[nH]ncc34)nc(N3CCOCC3)c2n1` [2-74, N-ethyl-6-(1H-indazol-4-yl)-8-morpholinoimidazo[1,2-a]pyrazine-2-carboxamide], for which the IC50 in the assay with phospho-Ser-473-Akt was 37 nM; at PI3K (p110α/p85α) (setting [3]) it was 92 nM.
With `CC(C)CS(=O)(=O)N1CCN(Cc2cn3cc(-c4cnc(N)nc4)nc(N4CCOCC4)c3n2)CC1` [2-221], the IC50 with phospho-Ser-473-Akt was determined as 135 nM; at PI3K (p110α/p85α) (setting [1]), 11 nM.
As to `Nc1ncc(-c2cn3cc(C(=O)NCCN4CCOCC4)nc3c(N3CCOCC3)n2)cn1` [2-164], the results for the IC50 in the assay on phospho-Ser-473-Akt and at PI3K (p110α/p85α) (setting [2]) were 34 nM and 11 nM, respectively.
The matching figures for `O=C(NCCN1CCOCC1)c1cn2cc(-c3cccc4[nH]ncc34)nc(N3CCOCC3)c2n1` [2-142]: 116 nM and 38 nM.
As to `CNC(=O)c1cn2cc(-c3cccc4[nH]ncc34)nc(N3CCOCC3)c2n1` [2-79], the IC50 in the assay with phospho-Ser-473-Akt amounted to 42 nM; at PI3K (p110α/p85α) (setting [3]) it was 110 nM.
In the case of `Nc1ncc(-c2cn3cc(C(F)(F)F)nc3c(N3CCOCC3)n2)cn1` [2-172], the IC50 in the assay with phospho-Ser-473-Akt is 149 nM; on PI3K (p110α/p85α) (setting [1]), 32 nM.
Consider `CS(=O)(=O)N1CCN(C(=O)c2cn3cc(-c4cccc5[nH]ncc45)nc(N4CCOCC4)c3n2)CC1` [2-16, (6-(1H-indazol-4-yl)-8-morpholinoimidazo[1,2-a]pyrazin-2-yl)(4-sulfonylmethyl-piperazin-1-yl)methanone], for which the IC50 is 503 nM with phospho-Ser-473-Akt and 254 nM on PI3K (p110α/p85α) (setting [3]).
As for `Cc1nc2c(N3CCOCC3)nc(-c3cccc4[nH]ncc34)cn2c1C1CCN(C)CC1` [2-58, 6-(1H-indazol-4-yl)-2-methyl-3-(1-methylpiperidin-4-yl)-8-morpholinoimidazo[1,2-a]pyrazine], the IC50 on PI3K (p110α/p85α) (setting [4]) fell in the range of 100 to 1000 nM.
